Reference: publication PMC4430595 (European Journal of Clinical Pharmacology, 2015)
Where “and” joins values, the source holds several entries; their conditions need not be identical. Identical values can stand only once. Like-named read-outs stand apart in the source and are kept apart here.

Legend:
clinical = conditions: both, human, in vivo, iv, 7.5 mg/kg
Description: (§1) Subjects included men and non-pregnant women and, in study A or B, respectively, were ≥18 years or 20–79 years of age with a body mass index of 18–36 or 18.5–34 kg/m^2. Subjects were either healthy or had mild, moderate or severe renal impairment.
(§2) Subjects were assigned to the renal impairment strata based on assessment during pre-study screening. For study A, strata assignment was based on CLcr calculated using the Cockcroft-Gault (C–G) equation [12] […] For study B, assignment was based on the estimated glomerular filtration rate (eGFR) using the Modification of Diet in Renal Disease formula [13] […] Summary statistics for Study B were also prepared using the C–G equation [12] with and without normalization to body surface area. Creatinine assays were performed at each clinical site using UV absorbance assays at 512 nm to detect the yellow–red complex formed from the reaction of creatinine and picric acid under alkaline conditions.
(§3) In subjects with end-stage renal disease (ESRD), haemodialysis was initiated 2–4 h after study drug administration (study A only). Haemodialysis sessions were 4 h in duration, and when possible, a similar type of dialyzer at a similar blood flow rate was used across haemodialysis subjects.
(§4) Blood samples (5–6 ml) were collected in sodium heparin glass tubes and stored chilled until the plasma was harvested by centrifugation and stored at approximately –70 °C or below until transferred frozen to a central laboratory for analysis. For subjects with varying degrees of renal impairment, samples were collected in study A pre-infusion, at 1, 2, 4, 6, 8, 12, 24, 36 and 48 h after the start of infusion for all groups and also at 72 and 96 h post-infusion for subjects with severe renal impairment or ESRD. In study B, samples were collected pre-infusion and at 0.5, 1, 1.5, 2, 3, 4, 6, 8, 10, 12, 16, 24, 36, 48, 60, 72, 84 and 96 h post-dose.
(§5) The method was linear over the range 0.25–100 μg/ml and the lower limit of quantification (LLQ) was 0.25 μg/ml. Dialysate samples from study A were analysed at a separate central laboratory (Covance Laboratories, Madison, WI, USA) using a similar validated LC–MS method. […] Study samples outside the calibration range were diluted and re-assayed. Dilution QC samples were included in batches where samples were diluted prior to analysis.
(§6) The CL reported for ESRD is the CL for the subjects (i.e., includes residual clearance and any dialysis clearance).

[1] = Study B: plasma pharmacokinetics after single-dose i.v. telavancin 10 mg/kg in subjects with varying renal function; conditions: for half-life / AUC(0-inf) / Cmax / clearance: both, human, in vivo, iv; for half-life / AUC(0-inf) / Cmax / clearance / increase in systemic exposure (AUC0–∞) compared with healthy subjects: 10 mg/kg; for AUC(0-inf): AUC0–∞; for Cmax: C max (maximum plasma concentration); for clearance: CL (clearance)
Protocol: Plasma pharmacokinetic parameters were calculated as previously described.

[2] = Study A: plasma pharmacokinetics after single-dose i.v. telavancin 7.5 mg/kg in subjects with varying renal function
Description: as §1, §2, §3, §4, §5, §6

[3] = study A, ESRD
Protocol: as §3
For subjects with ESRD (study A), a sample from the inflow to the dialyzer on the arterial side was collected before dialysis and at 1, 2, 3 and 4 h after the start of dialysis; dialysate fluid samples (10 ml) were collected before and at 30-min intervals during dialysis. Plasma samples were also collected at 0, 60, 120, 180 and 240 min following the start of dialysis.
as §5
Dialyzers used included the PSN 210 and the 2K 2.5 Dialysate (both Gambro). The dialysate flow rate was 800 mL/min, and blood flow rates in patients ranged from 300 to 500 mL/min.

plasma proteins = test: Plasma protein binding by equilibrium dialysis (study A pre-infusion plasma); format: in vitro ADME, human; conditions: in vitro equilibrium dialysis; for Protein binding (%): pre-infusion plasma, telavancin 50 μg/ml spiked with 1 μg/ml [14C]telavancin, mean ± SD
Protocol: The percent of protein binding was calculated as follows: %bound=donor−receptor÷donor×100%,and%unbound=receptor÷donor×100%, where donor = plasma side concentration and receptor = buffer side concentration.

[4] = Study B: urinary excretion and renal clearance; conditions: mean ± SD; for CLR (renal clearance): CLR = Ae ÷ AUC; for dose excreted: human, in vivo, iv, 10 mg/kg; for Ae0–∞ (amount excreted in the urine extrapolated to infinity): normalized to a telavancin dose of 10 mg/kg
Protocol: Aliquots were collected and stored at −70 °C or lower.
The inter- and intra-assay precision and accuracy of quality controls and standards during the validation was within 7.6 % in plasma and 10.2 % in urine.
Plasma pharmacokinetic parameters were calculated as previously described [7]. The CL reported for ESRD is the CL for the subjects (i.e., includes residual clearance and any dialysis clearance).
Dialyzers used included the PSN 210 and the 2K 2.5 Dialysate (both Gambro). The dialysate flow rate was 800 mL/min, and blood flow rates in patients ranged from 300 to 500 mL/min. […] In study B, the percentage of the dose excreted in urine was calculated as Ae0–t% = Ae0–t/dose × 100 % and Ae0–∞% = Ae0–∞/dose × 100 %.

[5] = cited from earlier work
[6] = not given; remark: listed apart in the source
[7] = data on file, cited from earlier work
[8] = human, in vivo
Description: as §1, §2, §3, §4, §5, §6

[9] = study B, single 1-h i.v. infusion telavancin 10 mg/kg, plasma, mild RI (eGFR 60 to 89 mL/min/1.73 m^2), n = 13, mean ± SD
[10] = study B, single 1-h i.v. infusion telavancin 10 mg/kg, plasma, normal renal function (eGFR ≥90 mL/min/1.73 m^2), n = 14, mean ± SD
[11] = study B, single 1-h i.v. infusion telavancin 10 mg/kg, plasma, severe RI (eGFR 15 to 29 mL/min/1.73 m^2), n = 8, mean ± SD
[12] = subjects with severe renal impairment or ESRD, stated for both studies

CCCCCCCCCCNCCN[C@@]1(C)C[C@H](O[C@H]2[C@H](Oc3c4cc5cc3Oc3ccc(cc3Cl)[C@@H](O)[C@@H](NC(=O)[C@@H](CC(C)C)NC)C(=O)N[C@@H](CC(N)=O)C(=O)N[C@H]5C(=O)N[C@H]3C(=O)N[C@H](C(=O)N[C@H](C(=O)O)c5cc(O)c(CNCP(=O)(O)O)c(O)c5-c5cc3ccc5O)[C@H](O)c3ccc(c(Cl)c3)O4)O[C@H](CO)[C@@H](O)[C@@H]2O)O[C@@H](C)[C@H]1O [telavancin]
Cmax (clinical): 70.6 ± 11.2 µg/mL
half-life [1]: 6.5 h
AUC(0-inf) [1, 9]: 606 µg·h/mL
AUC(0-inf) ([1]; study B, single 1-h i.v. infusion telavancin 10 mg/kg, plasma, moderate RI (eGFR 30 to 59 mL/min/1.73 m^2), n = 8, mean ± SD): 936 µg·h/mL
AUC(0-inf) [1, 10]: 539 µg·h/mL
AUC(0-inf) [1, 11]: 1400 µg·h/mL
Cmax ([1]; study B, single 1-h i.v. infusion telavancin 10 mg/kg, mild RI (eGFR 60 to 89 mL/min/1.73 m^2), n = 13, mean ± SD): 74.2 µg/mL
Cmax ([1]; study B, single 1-h i.v. infusion telavancin 10 mg/kg, normal renal function (eGFR ≥90 mL/min/1.73 m^2), n = 14, mean ± SD): 76.7 µg/mL
Cmax ([1]; study B, single 1-h i.v. infusion telavancin 10 mg/kg, severe RI (eGFR 15 to 29 mL/min/1.73 m^2), n = 8, mean ± SD): 83.2 µg/mL
clearance [1, 9]: 0.253 mL/min/kg
clearance [1, 10]: 0.283 mL/min/kg
clearance [1, 11]: 0.108 mL/min/kg
half-life ([1]; t ½ (terminal elimination half-life), study B, single 1-h i.v. infusion telavancin 10 mg/kg, plasma, mild RI (eGFR 60 to 89 mL/min/1.73 m^2), n = 13, mean ± SD): 7.8 h
half-life ([1]; t ½ (terminal elimination half-life), study B, single 1-h i.v. infusion telavancin 10 mg/kg, plasma, severe RI (eGFR 15 to 29 mL/min/1.73 m^2), n = 8, mean ± SD): 11.8 h
increase in systemic exposure (AUC0–∞) compared with healthy subjects ([1]; study B, mild renal impairment): 12%
increase in systemic exposure (AUC0–∞) compared with healthy subjects ([1]; study B, moderate renal impairment): 74%
increase in systemic exposure (AUC0–∞) compared with healthy subjects ([1]; study B, severe renal impairment): 160%
C max (maximum plasma concentration) ([1]; study B, single 1-h i.v. infusion telavancin 10 mg/kg, moderate RI (eGFR 30 to 59 mL/min/1.73 m^2), n = 8, mean ± SD): 78.0 ± 4.5 µg/mL
clearance ([2]; both, human, in vivo, iv, 7.5 mg/kg, CL (clearance), study A, single 1-h i.v. infusion telavancin 7.5 mg/kg, plasma, ESRD, n = 6, includes residual clearance and any dialysis clearance, mean ± SD): 0.136 mL/min/kg
increase in systemic exposure (AUC0–∞) compared with healthy subjects ([2]; study A, 7.5 mg/kg, ESRD group): 79%
increase in systemic exposure (AUC0–∞) compared with healthy subjects ([2]; study A, 7.5 mg/kg, mild renal impairment): 13%
increase in systemic exposure (AUC0–∞) compared with healthy subjects ([2]; study A, 7.5 mg/kg, moderate renal impairment): 29%
increase in systemic exposure (AUC0–∞) compared with healthy subjects ([2]; study A, 7.5 mg/kg, severe renal impairment): 118%
change of t1/2 [2, 12]: almost doubled
reduction of mean plasma CL [2, 12]: more than 50%
dialysis clearance as share of clearance in normal subjects (total body CL) [3]: approximately 25%
total administered dose removed by dialysis session ([3]; 7.5 mg/kg, 4-h haemodialysis on the day of administration, dialysate flow 800 mL/min): approximately 6%
dialysis clearance ([3]; CLHD = QD × (CTLV – DTLV) ÷ CTLV, dialysate flow 800 mL/min, estimated): 4.5 mL/min
dialysis clearance ([3]; same value in ml/h): 4.52 mL/min
Protein binding (%) (plasma proteins; ESRD on dialysis, n = 6): 87.6 ± 1.0/0%
Protein binding (%) (plasma proteins; mild RI (CLcr 51–80 mL/min), n = 6): 87.5 ± 1.0%
Protein binding (%) (plasma proteins; moderate RI (CLcr 30–50 mL/min), n = 6): 87.8 ± 1.1%
Protein binding (%) (plasma proteins; normal renal function (CLcr >80 mL/min), n = 6): 86.5 ± 1.3%
Protein binding (%) (plasma proteins; severe RI (CLcr <30 mL/min), n = 4): 86.7 ± 1.2%
average binding to plasma proteins (plasma proteins; study A pre-dose plasma, all renal impairment groups): approximately 87%
CLR (renal clearance) ([4]; mild renal impairment): 0.147 ± 0.055 mL/min/kg
CLR (renal clearance) ([4]; moderate renal impairment): 0.0783 ± 0.0267 mL/min/kg
CLR (renal clearance) ([4]; normal renal function): 0.17 ± 0.03 mL/min/kg and 0.175 ± 0.0317 mL/min/kg
CLR (renal clearance) ([4]; severe renal impairment): 0.03 ± 0.01 mL/min/kg and 0.0317 ± 0.012 mL/min/kg
dose excreted ([4]; both, Ae0-t % (percentage of the dose excreted in urine), urine 0–96 h, mild renal impairment): 58.2 ± 11.5%
dose excreted ([4]; both, Ae0-t % (percentage of the dose excreted in urine), urine 0–96 h, moderate renal impairment): 48.4 ± 8.7%
dose excreted ([4]; both, Ae0-t % (percentage of the dose excreted in urine), urine 0–96 h, normal renal function): 62.8 ± 9%
dose excreted ([4]; both, Ae0–∞% (percentage of the dose excreted in urine, extrapolated to infinity), normal renal function): 62.7 ± 9.1%
dose excreted ([4]; Ae0–∞% (percentage of the dose excreted in urine, extrapolated to infinity), mild renal impairment): 58.2 ± 11.6%
dose excreted ([4]; Ae0–∞% (percentage of the dose excreted in urine, extrapolated to infinity), moderate renal impairment): 48.4 ± 9.3%
dose excreted ([4]; Ae0–∞% (percentage of the dose excreted in urine, extrapolated to infinity), severe renal impairment): 28.2 ± 3.9%
Ae0–∞ (amount excreted in the urine extrapolated to infinity) ([4]; mild renal impairment): 396 ± 100 mg
Ae0–∞ (amount excreted in the urine extrapolated to infinity) ([4]; moderate renal impairment): 375 ± 96 mg
Ae0–∞ (amount excreted in the urine extrapolated to infinity) ([4]; normal renal function): 435 ± 91 mg
Ae0–∞ (amount excreted in the urine extrapolated to infinity) ([4]; severe renal impairment): 208 ± 60 mg
Ae0-t % (percentage of the dose excreted in urine) ([4]; urine 0–96 h, severe renal impairment): 28.0 ± 4.3%
serious adverse events (stated after the study B findings, study not given): No serious adverse events were reported
subjects reporting treatment-emergent adverse events (TEAEs) (study B, all subjects, 7/43): 16.3%
subjects reporting treatment-emergent adverse events (TEAEs) (study B, mild renal impairment, 1/13): 7.7%
subjects reporting treatment-emergent adverse events (TEAEs) (study B, moderate renal impairment, 2/8): 25%
subjects reporting treatment-emergent adverse events (TEAEs) (study B, normal renal function, 0/14): 0%
subjects reporting treatment-emergent adverse events (TEAEs) (study B, severe impairment, 4/8): 50%
tolerability (study B, single i.v. infusion 10 mg/kg, normal renal function and varying degrees of renal impairment): well tolerated
subjects with ECG QT prolongation (study B, three subjects of 43 (two severe, one moderate renal impairment), mild and transient): 7.0%
subjects with increased blood lactate dehydrogenase (study B, two subjects of 43, mild and transient): 4.7%
excreted intact in urine ([5]; after a single i.v. administration of 10 mg/kg): 82%
elimination half-life (t½) ([5]; healthy adult volunteers, 7.5–15 mg/kg/day i.v. infusion, averaging): ~7 h
subjects reporting treatment-emergent adverse events (TEAEs) ([6]; study A, ESRD, 2/6): 33%
subjects reporting treatment-emergent adverse events (TEAEs) ([6]; study A, all subjects, 17/29): 59%
subjects reporting treatment-emergent adverse events (TEAEs) ([6]; study A, mild renal impairment, 4/7): 57%
subjects reporting treatment-emergent adverse events (TEAEs) ([6]; study A, moderate renal impairment, 3/6): 50%
subjects reporting treatment-emergent adverse events (TEAEs) ([6]; study A, normal renal function, 5/6): 83%
subjects reporting treatment-emergent adverse events (TEAEs) ([6]; study A, severe impairment, 3/4): 75%
tolerability ([6]; study A, single i.v. infusion 7.5 mg/kg, normal renal function and varying degrees of renal impairment): well tolerated
audiology assessments ([6]; ten subjects with various degrees of renal impairment, study not given): no clinically significant abnormalities

hydroxypropylbetadex
t½ ([7]; previously studied patients with severe renal impairment): 15.6 ± 6.0 h
t½ ([7]; subjects with normal renal function): 2.5 ± 0.84 h
CL (clearance) [8]: 9.8 ± 4.3/0 mL/h/kg
